According to PubChem BioAssay (NCI):
Several values for one entry are separate records, joined by “and”; a condition that tells them apart may be missing. Equal values may be shown once.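 Five compound concentrations were applied to cells in 96-well plates for 48 hours; endpoints were derived by simple linear interpolation of the resulting dose-response curve. GI50 is the concentration that inhibits growth by half. TGI: total growth inhibition.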

What was measured:
Test in all cases: growth of human tumour cells (NCI), 48 h
T-47D breast = test system: T-47D breast
COLO 205 colon = test system: COLO 205 colon
ACHN renal = test system: ACHN renal
HT29 colon = test system: HT29 colon
TK-10 renal = test system: TK-10 renal
KM12 colon = test system: KM12 colon
CCRF-CEM leukemia = test system: CCRF-CEM leukemia
BT-549 breast = test system: BT-549 breast
UACC-257 melanoma = test system: UACC-257 melanoma
NCI-H226 lung = test system: NCI-H226 lung

SMILES | GI50 (T-47D breast) [µM] | TGI (T-47D breast) [µM] | GI50 (COLO 205 colon) [µM] | TGI (COLO 205 colon) [µM] | GI50 (ACHN renal) [µM] | TGI (ACHN renal) | GI50 (HT29 colon) [µM] | TGI (HT29 colon) [µM] | GI50 (TK-10 renal) [µM] | TGI (TK-10 renal) | GI50 (KM12 colon) | TGI (KM12 colon) | GI50 (CCRF-CEM leukemia) [µM] | TGI (CCRF-CEM leukemia) [µM] | GI50 (BT-549 breast) [µM] | TGI (BT-549 breast) [µM] | GI50 (UACC-257 melanoma) [µM] | TGI (UACC-257 melanoma) [µM] | GI50 (NCI-H226 lung) [µM] | TGI (NCI-H226 lung) [µM]
Cc1cn2c(=O)n(c1=O)Cc1ccccc1C2 | 0.182 | 10.8 | 1.04 | 31.9 | > 100 | > 100 µM | > 100 | > 100 | > 100 | > 100 µM | > 100 µM | > 100 µM | 50.6 | > 100 | 48.4 | > 100 | > 100 | > 100 | – | –
Cc1cc(NC(=O)NC(=O)c2ccccc2NC(=O)CN)ccc1Oc1ncc(Br)cn1 | – | 47.4 | – | 2.24 | 5.25 | 40.7 µM and 80.3 µM | 0.0653 | – | 3.73 | 36.4 µM and 25.3 µM | 0.146 µM | 34.5 µM and > 100 µM | 0.0476 | – | – | – | – | 38.4 | 0.238 | –
CC(=O)O[C@H]1CC[C@@]2(C)C(=CC[C@@H]3C2CC[C@]2(C)Nc4[nH]ncc4CC32)C1 (stereo partly specified) | – | – | – | – | – | > 100 µM | – | 30.6 | – | > 100 µM | – | 31.1 µM | – | 40.3 | – | – | – | 30.8 | – | > 100
COc1cc2c(c(OC)c1OC)-c1ccc(SC)c(=O)cc1C(CC(=O)Oc1cccc(C#N)c1)C2 (stereo unspecified) | – | – | – | 3.41 | – | > 100 µM | – | 0.796 | – | – | – | 4.83 µM | – | 5.33 | – | – | – | > 100 | – | 1.02
NC1=C(Cl)C(=O)c2ccccc2C1=O | – | – | – | 30.8 | – | 22.7 µM | – | 30.4 | – | 49 µM | – | 25.7 µM | – | 32.5 | – | 4.19 | – | 8.38 | – | 18.3
COc1ccc2c(c1)CCCC1C3=NCCC3(C)CSC21 (stereo unspecified) | – | – | – | > 100 | – | – | – | > 100 | – | > 100 µM | – | > 100 µM | – | > 100 | – | – | – | – | – | –
CCOC(=O)c1cnc2cc3cccccc3n2c1=O | – | – | – | > 100 | – | > 100 µM | – | > 100 | – | > 100 µM | – | > 100 µM | – | > 100 | – | – | – | > 100 | – | > 100
COc1cc2c3c(n(CCCNCCNCCCN)c(=O)c2cc1OC)-c1cc2c(cc1C3=O)OCO2 | 2.72 | 17.3 | 3.57 | 17.9 | 0.18 | 2.6 µM | 2.03 | 10.2 | 7.92 | 27 µM | 2.61 µM | 14.5 µM | – | – | 15.1 | 35.2 | 9.51 | 30.9 | 2.06 | 7.06
COc1cc2c3c(n(C)c(=O)c2cc1OC)-c1cc2c(cc1/C3=C/[C@H](N)CCCCN)OCO2 | 4.85 | > 100 | 1.18 | > 19.8 | 0.637 | 3.16 µM | 1.65 | > 100 | 3.95 | 21.5 µM | 2.07 µM | > 58.5 µM | 0.0526 | > 100 | – | 2.57 | 1.98 | 11.1 | – | –
CCCCCCCCCCCCCCCCn1cc[n+](Cc2ccccc2)c1C | 0.207 | 0.951 | – | – | 1.89 | 7 µM | 0.297 | 1.08 | 0.86 | 2.2 µM | 1.36 µM and 0.176 µM | 2.87 µM and 0.407 µM | 0.401 | 2.48 | – | – | 1.27 | 11.2 | – | –
O=C(O)CCCNS(=O)(=O)c1ccc2ccccc2c1 | – | – | – | > 100 | – | > 100 µM | – | > 100 | – | > 100 µM | – | > 100 µM | – | > 100 | – | – | – | > 100 | – | > 100
O=CN1CCN(C=S)CC1 | – | – | – | > 100 | – | > 100 µM | – | > 100 | – | > 100 µM | – | > 100 µM | – | > 100 | – | – | – | > 100 | – | > 100
OCc1ccc(Oc2c3ccccc3nc3occc23)cc1 | 6.94 | 62.4 | 26.1 | 54.8 | – | – | 28.6 | > 100 | 18.1 | 46.8 µM | 17.8 µM | 37.8 µM | 31.3 | > 100 | – | – | 30 | 74.7 | – | –
NC(N)=N/N=C/c1c(-c2ccc(Cl)c([N+](=O)[O-])c2)nc2ccccn12 | 2.08 | 5.01 | – | – | 11.3 | 34.9 µM | 1.42 | > 100 | – | – | – | – | – | – | 0.119 | 1.18 | 6.76 | 31 | – | –
COc1ccc(C(O)/C(=C/n2ccnc2)c2ccccc2)cc1OC (stereo unspecified) | – | – | – | > 100 | – | > 100 µM | – | > 100 | – | > 100 µM | – | > 100 µM | – | > 100 | – | – | – | > 100 | – | > 100
N/C(=N\c1nc2ccccc2s1)NC(=O)Nc1cccc2ccccc12 | 0.556 | > 100 | – | – | – | – | 0.19 | > 100 | – | – | – | – | 0.36 | > 100 | 2.91 | > 100 | > 100 | > 100 | 0.6 | > 68.9
CN(CCN(C)C(=O)CCOS(C)(=O)=O)C(=O)CCOS(C)(=O)=O | – | – | – | > 100 | – | > 100 µM | – | > 100 | – | > 100 µM | – | > 100 µM | – | > 100 | – | – | – | > 100 | – | > 100
c1cncc(CNc2ncn[nH]2)c1 | – | > 100 | – | > 100 | – | > 100 µM | – | > 100 | – | > 100 µM | – | > 100 µM | – | – | – | > 100 | – | > 100 | – | > 100
NC(=O)c1c2c(cc3c(=O)c4ccccc4[nH]c13)CCCC2 | – | – | – | > 100 | – | > 100 µM | – | > 100 | – | > 100 µM | – | > 100 µM | – | 98.7 | – | – | – | > 100 | – | > 100
Cc1c(O)c(=O)ccn1CCO | – | – | – | > 100 | – | > 100 µM | – | > 100 | – | > 100 µM | – | > 100 µM | – | > 100 | – | – | – | > 100 | – | > 100
Cc1ccc(Oc2nc3ccccc3cc2-c2nnc(Cn3c(COc4ccccc4)nc4ccccc43)o2)cc1 | 2.61 | 14.6 | 1.89 | 4.44 | – | – | 2.02 | 4.43 | 3.91 | 9.92 µM | 2.85 µM | 11.8 µM | 0.414 | 3.74 | 1.77 | 4.06 | 3.28 | 14.9 | 5.99 | 31.4
